Key:
[1] = molecular target: T1, human MR (mineralocorticoid receptor) (Homo sapiens, UniProt P08235); experiment: Steroid nuclear hormone receptor binding assay, MR; conditions: [3H]-aldosterone, HEK293 lysate overexpressing human MR
T1 construct: expressed in transfected cells; host or cells: HEK293 (293-MR lysate)
T1 sequence (P08235 1-984): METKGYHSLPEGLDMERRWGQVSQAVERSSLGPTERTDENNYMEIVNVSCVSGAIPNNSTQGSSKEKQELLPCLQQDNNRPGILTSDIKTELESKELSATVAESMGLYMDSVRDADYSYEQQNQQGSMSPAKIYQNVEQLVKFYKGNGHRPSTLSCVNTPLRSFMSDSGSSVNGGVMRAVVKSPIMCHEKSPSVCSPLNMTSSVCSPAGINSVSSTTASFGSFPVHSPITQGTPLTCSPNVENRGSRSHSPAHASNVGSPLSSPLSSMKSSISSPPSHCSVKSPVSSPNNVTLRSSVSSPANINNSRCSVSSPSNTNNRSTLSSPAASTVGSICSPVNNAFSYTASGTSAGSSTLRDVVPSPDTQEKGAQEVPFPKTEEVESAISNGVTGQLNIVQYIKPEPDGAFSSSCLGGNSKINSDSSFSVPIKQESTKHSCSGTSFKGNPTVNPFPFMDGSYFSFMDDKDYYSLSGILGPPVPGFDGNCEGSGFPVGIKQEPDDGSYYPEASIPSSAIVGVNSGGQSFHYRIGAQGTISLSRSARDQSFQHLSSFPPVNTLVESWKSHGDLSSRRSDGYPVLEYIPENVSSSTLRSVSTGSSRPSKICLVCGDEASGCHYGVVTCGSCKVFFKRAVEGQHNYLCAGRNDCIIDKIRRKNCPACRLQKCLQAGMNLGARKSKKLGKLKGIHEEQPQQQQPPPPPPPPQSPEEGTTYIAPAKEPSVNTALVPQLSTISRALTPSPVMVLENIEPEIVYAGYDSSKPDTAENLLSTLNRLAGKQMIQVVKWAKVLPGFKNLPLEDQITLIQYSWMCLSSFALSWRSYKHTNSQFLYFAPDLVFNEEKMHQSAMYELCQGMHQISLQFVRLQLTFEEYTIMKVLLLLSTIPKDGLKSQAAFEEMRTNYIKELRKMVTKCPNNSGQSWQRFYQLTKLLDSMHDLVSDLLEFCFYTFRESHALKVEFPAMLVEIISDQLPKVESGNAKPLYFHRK
Procedure: Cell lysates from human embryonic kidney HEK293 cells overexpressing human MR (mineralocorticoid receptor), GR (glucocorticoid receptor), AR (androgen receptor), or PR (progesterone receptor) are used for receptor-ligand competition binding assays to determine Ki values.
Briefly, steroid receptor competition binding assays are run in a buffer containing 20 mM HEPES buffer (pH=7.6), 0.2 mM EDTA, 75 mM NaCl, 1.5 mM MgCl2, 20% glycerol, 20 mM sodium molybdate, 0.2 mM DTT (dithiothreitol), 20 μg/mL aprotinin and 20 μg/mL leupeptin (assay buffer). Typically, steroid receptor binding assays include radio-labeled ligands, such as 0.25 nM [^3H]-aldosterone for MR binding, 0.7 nM [^3H]-dexamethasone for GR binding, 0.36 nM [^3H]-methyltrienolone for AR binding, and 0.29 nM [^3H]-methyltrienolone for PR binding, and either 20 μg 293-MR lysate, 20 μg 293-GR lysate, 22 μg 293-AR lysate, or 40 μg 293-PR lysate per well. Assays are typically run in 96-well format. Competing test compounds are added at various concentrations ranging from about 0.01 nM to 10 μM. Non-specific binding is determined in the presence of 500 nM aldosterone for MR binding, 500 nM dexamethasone for GR binding, or 500 nM methyltrienolone for AR and PR binding. […] After an incubation of 2 hours, plates are read in a Wallac Microbeta counter. […]

[2] = molecular target: T2, human mineralocorticoid receptor (MR) (Homo sapiens, UniProt P08235); experiment: Nuclear hormone receptor panel screen (luciferase reporter, HEK293), MR; format: cell-based
T2 construct: expressed in transfected cells; host or cells: HEK293
T2 sequence (P08235 1-984): T1 sequence (P08235 1-984)
Text: Aldosterone exerts it physiological effects through interaction with the mineralocorticoid receptor. Following cytoplasmic binding of aldosterone to MR, the ligand receptor complex translocates to the cell nucleus where it binds to hormone response elements on DNA to initiate expression of target genes. […] The solvents, reagents, and ligands employed in the functional assay are readily available from commercial sources, or can be prepared by one of ordinary skill in the art.
Human embryonic kidney HEK293 cells are transfected with steroid hormone receptor and reporter gene plasmids using a suitable transfection reagent such as Fugene™. […] After 24 hours incubation with test compounds, cells are lysed and luciferase activity is determined using standard techniques.
Data are fitted to a four parameter-fit logistic curve to determine EC50 values. […] IC50 values are determined similarly using antagonist mode assay data. In the antagonist mode, percent inhibitions are determined by comparing test compound activity in the presence of low concentration of agonist (0.08 nM aldosterone for MR, 0.25 nM dexamethasone for GR, 0.66 nM of methyltrienolone for AR, and 0.08 nM of promegestone for PR) to the response produced by the same low concentration of agonist in the absence of test compound.

SMILES: O=c1[nH]c2cc(/C=C3\c4ccccc4COc4cc(F)ccc43)ccc2n1[C@@H]1C[C@@H]2COCCN2C1 [Compound (I), 5-((E)-(3-fluorodibenzo[b,e]oxepin-11(6H)-ylidene)methyl)-1-((7R,8aR)-hexahydro-1H-pyrrolo[2,1-c][1,4]oxazin-7-yl)-1H-benzo[d]imidazol-2(3H)-one]
- Ki [1]: ~0.4 nM
- EC50 ([2]; agonist mode): > 10000 nM
- IC50 ([2]; antagonist mode, 0.08 nM aldosterone): ~21 nM

— patent US8658638B2, “Mineralocorticoid receptor antagonist and methods of use” (priority 2009, dated 2014)
